From US6960614B2, “Oxygenated esters of 4-lodo phenylamino benzhydroxamic acids” (Warner-Lambert Company, priority 2000, dated 2005)

Assays:
MEK = test: Cellular Assay for Measuring MEK Inhibition (inhibition of ERK phosphorylation in C26 cells, Western blot); assay type: cell-based, murine; details: for % Inhibition @ 1 μM / % Inhibition @ 10 μM / % Inhibition @ 0.1 μM: ERK phosphorylation in C26 cells; for IC50: inhibition of ERK phosphorylation in murine colon 26 (C26) carcinoma cells, determined graphically from dose response curve
In short: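 Read-out is phospho-ERK1/2 by Western blot, normalized against total ERK1/2 after stripping and re-probing. Murine C26 colon carcinoma cells in exponential growth were exposed to a range of compound concentrations at 37° C before lysis.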

Row | SMILES | % Inhibition @ 1 μM (MEK) [%] | % Inhibition @ 0.1 μM (MEK) [%] | also measured
1 | O=C(NOCCO)c1cc(F)c(F)cc1Nc1ccc(I)cc1F [Example 18, 4,5-Difluoro-2-(2-fluoro-4-iodo-phenylamino)-N-(2-hydroxy-ethoxy)-benzamide] |  |  | melting point: 189.6 to 190.6 °C
2 | O=C(NOCCCO)c1cc(Br)c(F)c(F)c1Nc1ccc(I)cc1Cl [Example 31, 5-Bromo-2-(2-chloro-4-iodo-phenylamino)-3,4-difluoro-N-(3-hydroxy-propoxy)-benzamide] |  |  | melting point: 120 to 121 °C
3 | C=COCCONC(=O)c1ccc(F)c(F)c1Nc1ccc(I)cc1Cl [Example 56, 2-(2-Chloro-4-iodo-phenylamino)-3,4-difluoro-N-(2-vinyloxy-ethoxy)-benzamide] |  |  | melting point: 141.5 to 143 °C
4 | C=COCCONC(=O)c1cc(Cl)c(F)c(F)c1Nc1ccc(I)cc1F [Example 60, 5-Chloro-3,4-difluoro-2-(2-fluoro-4-iodo-phenylamino)-N-(2-vinyloxy-ethoxy)-benzamide] |  |  | melting point: 119 to 120 °C
5 | O=C(NOCC(O)CO)c1cc(Br)c(F)c(F)c1Nc1ccccc1F (stereo not drawn) [Example 84, 5-Bromo-N-(2,3-dihydroxy-propoxy)-3,4-difluoro-2-(2-fluoro-phenylamino)-benzamide] |  |  | melting point: 143.5 to 144.5 °C
6 | CC(C)(CO)CONC(=O)c1cc(Cl)c(F)c(F)c1Nc1ccc(F)cc1F [Example 203, 5-Chloro-2-(2,4-difluoro-phenylamino)-3,4-difluoro-N-(3-hydroxy-2,2-dimethyl-propoxy)-benzamide] | 0 |  | % Inhibition @ 10 μM (MEK): 37.4%
7 | COCCOCCONC(=O)c1cc(Br)c(F)c(F)c1Nc1ccc(I)cc1C [Example 206, 5-Bromo-3,4-difluoro-2-(4-iodo-2-methyl-phenylamino)-N-[2-(2-methoxy-ethoxy)-ethoxy]-benzamide] |  |  | IC50 (MEK): 140 nM
8 | COCCOCCONC(=O)c1ccc(F)c(F)c1Nc1ccc(I)cc1Cl [Example 207, 2-(2-Chloro-4-iodo-phenylamino)-3,4-difluoro-N-[2-(2-methoxy-ethoxy)-ethoxy]-benzamide] |  |  | IC50 (MEK): 212 nM
9 | COCCOCCONC(=O)c1cc(F)c(F)c(F)c1Nc1ccc(I)cc1Cl [Example 208, 2-(2-Chloro-4-iodo-phenylamino)-3,4,5-trifluoro-N-[2-(2-methoxy-ethoxy)-ethoxy]-benzamide] |  |  | IC50 (MEK): 1030 nM
10 | O=C(NOCC(O)C(F)(F)F)c1cc(F)c(F)c(F)c1Nc1ccc(I)cc1F (stereo not drawn) [Example 210, 3,4,5-Trifluoro-2-(2-fluoro-4-iodo-phenylamino)-N-(3,3,3-trifluoro-2-hydroxy-propoxy)-benzamide] | 99.2 | 79.7 | 
11 | O=C(NOCC(O)C(F)(F)F)c1cc(Cl)c(F)c(F)c1Nc1ccc(F)cc1F (stereo not drawn) [Example 211, 5-Chloro-2-(2,4-difluoro-phenylamino)-3,4-difluoro-N-(3,3,3-trifluoro-2-hydroxy-propoxy)-benzamide] | 35 |  | % Inhibition @ 10 μM (MEK): 71.9%
12 | O=C(NOCC(O)C(F)(F)F)c1ccc(F)c(F)c1Nc1ccc(F)cc1F (stereo not drawn) [Example 212, 2-(2,4-Difluoro-phenylamino)-3,4-difluoro-N-(3,3,3-trifluoro-2-hydroxy-propoxy)-benzamide] | 20.1 |  | % Inhibition @ 10 μM (MEK): 85.1%
13 | O=C(NOCC(O)C(F)(F)F)c1ccc(F)c(F)c1Nc1ccc(Cl)cc1F (stereo not drawn) [Example 213, 2-(4-Chloro-2-fluoro-phenylamino)-3,4-difluoro-N-(3,3,3-trifluoro-2-hydroxy-propoxy)-benzamide] | 78.7 | 6.2 | 
14 | O=C(NOCC1CC1CO)c1cc(Cl)c(F)c(F)c1Nc1ccc(F)cc1F (stereo not drawn) [Example 214, 5-Chloro-2-(2,4-difluoro-phenylamino)-3,4-difluoro-N-(2-hydroxymethyl-cyclopropylmethoxy)-benzamide] | 15.4 |  | % Inhibition @ 10 μM (MEK): 38.2%
15 | O=C(NOCC1CC1CO)c1ccc(F)c(F)c1Nc1ccc(F)cc1F (stereo not drawn) [Example 215, 2-(2,4-Difluoro-phenylamino)-3,4-difluoro-N-(2-hydroxymethyl-cyclopropylmethoxy)-benzamide] | 11.7 |  | % Inhibition @ 10 μM (MEK): 84.8%
16 | O=C(NOCC1CC1CO)c1ccc(F)c(F)c1Nc1ccc(Cl)cc1F (stereo not drawn) [Example 216, 2-(4-Chloro-2-fluoro-phenylamino)-3,4-difluoro-N-(2-hydroxymethyl-cyclopropylmethoxy)-benzamide] | 87.6 | 41.2 | 
17 | O=C(NOCC1CC1CO)c1cc(F)c(F)cc1Nc1ccc(I)cc1F (stereo not drawn) [Example 217, 4,5-Difluoro-2-(2-fluoro-4-iodo-phenylamino)-N-(2-hydroxymethyl-cyclopropylmethoxy)-benzamide] | 93.1 | 26.9 | 
18 | O=C(NOCC1(CO)CC1)c1ccc(F)c(F)c1Nc1ccc(I)cc1F [Example 218, 3,4-Difluoro-2-(2-fluoro-4-iodo-phenylamino)-N-(1-hydroxymethyl-cyclopropylmethoxy)-benzamide] | 96.9 | 87 | 

Row | SMILES | % Inhibition @ 1 μM (MEK) [%] | % Inhibition @ 0.1 μM (MEK) [%] | also measured
19 | O=C(NOCC1(CO)CC1)c1cc(F)c(F)c(F)c1Nc1ccc(I)cc1F [Example 219, 3,4,5-Trifluoro-2-(2-fluoro-4-iodo-phenylamino)-N-(1-hydroxymethyl-cyclopropylmethoxy)-benzamide] | 96.2 | 65.3 | 
20 | O=C(NOCC1(CO)CC1)c1cc(Br)c(F)c(F)c1Nc1ccc(I)cc1F [Example 220, 5-Bromo-3,4-difluoro-2-(2-fluoro-4-iodo-phenylamino)-N-(1-hydroxymethyl-cyclopropylmethoxy)-benzamide] | 88.8 | 35.4 | 
21 | O=C(NOCC1(CO)CC1)c1cc(F)c(F)cc1Nc1ccc(I)cc1F [Example 221, 4,5-Difluoro-2-(2-fluoro-4-iodo-phenylamino)-N-(1-hydroxymethyl-cyclopropylmethoxy)-benzamide] | 92.4 | 46 | 
22 | O=C(NOCC1(CO)CC1)c1ccc(F)c(F)c1Nc1ccc(F)cc1F [Example 222, 2-(2,4-Difluoro-phenylamino)-3,4-difluoro-N-(1-hydroxymethyl-cyclopropylmethoxy)-benzamide] | 9.6 |  | % Inhibition @ 10 μM (MEK): 55.6%
23 | O=C(NOCC1(CO)CC1)c1ccc(F)c(F)c1Nc1ccc(Br)cc1F [Example 223, 2-(4-Bromo-2-fluoro-phenylamino)-3,4-difluoro-N-(1-hydroxymethyl-cyclopropylmethoxy)-benzamide] | 56.7 | 5.2 | 
24 | O=C(NOCC1(CO)CC1)c1ccc(F)c(F)c1Nc1ccc(Cl)cc1F [Example 224, 2-(4-Chloro-2-fluoro-phenylamino)-3,4-difluoro-N-(1-hydroxymethyl-cyclopropylmethoxy)-benzamide] | 18.1 | 0 | 
25 | O=C(NOCC1(CO)CC1)c1cc(Cl)c(F)c(F)c1Nc1ccc(F)cc1F [Example 225, 5-Chloro-2-(2,4-difluoro-phenylamino)-3,4-difluoro-N-(1-hydroxymethyl-cyclopropylmethoxy)-benzamide] | 8.7 | 0 | % Inhibition @ 10 μM (MEK): 36.9%
26 | COCC(O)CONC(=O)c1ccc(F)c(F)c1Nc1ccc(F)cc1F (stereo not drawn) [Example 226, 2-(2,4-Difluoro-phenylamino)-3,4-difluoro-N-(2-hydroxy-3-methoxy-propoxy)-benzamide] | 41.5 |  | % Inhibition @ 10 μM (MEK): 84.1%
27 | COCC(O)CONC(=O)c1cc(Cl)c(F)c(F)c1Nc1ccc(F)cc1F (stereo not drawn) [Example 227, 5-Chloro-2-(2,4-difluoro-phenylamino)-3,4-difluoro-N-(2-hydroxy-3-methoxy-propoxy)-benzamide] | 24.2 |  | % Inhibition @ 10 μM (MEK): 63%
28 | COCC(O)CONC(=O)c1ccc(F)c(F)c1Nc1ccc(Br)cc1F (stereo not drawn) [Example 228, 2-(4-Bromo-2-fluoro-phenylamino)-3,4-difluoro-N-(2-hydroxy-3-methoxy-propoxy)-benzamide] | 92.4 | 48.6 | 
29 | COCC(O)CONC(=O)c1ccc(F)c(F)c1Nc1ccc(Cl)cc1F (stereo not drawn) [Example 229, 2-(4-Chloro-2-fluoro-phenylamino)-3,4-difluoro-N-(2-hydroxy-3-methoxy-propoxy)-benzamide] | 76.5 | 9.8 | 
30 | Cc1cc(I)ccc1Nc1c(C(=O)NOCCNc2ccccc2)cc(F)c(F)c1F [Example 230, 3,4,5-Trifluoro-2-(4-iodo-2-methyl-phenylamino)-N-(2-phenylamino-ethoxy)-benzamide] |  |  | IC50 (MEK): 51 nM
31 | Cc1cc(I)ccc1Nc1c(C(=O)NOCCNc2ccccc2)cc(Br)c(F)c1F [Example 231, 5-Bromo-3,4-difluoro-2-(4-iodo-2-methyl-phenylamino)-N-(2-phenylamino-ethoxy)-benzamide] |  |  | IC50 (MEK): 67 nM
32 | O=C(NOCCNc1ccccc1)c1ccc(F)c(F)c1Nc1ccc(I)cc1Cl [Example 232, 2-(2-Chloro-4-iodo-phenylamino)-3,4-difluoro-N-(2-phenylamino-ethoxy)-benzamide] |  |  | IC50 (MEK): 22 nM
33 | O=C(NOCCNc1ccccc1)c1cc(F)c(F)c(F)c1Nc1ccc(I)cc1Cl [Example 233, 2-(2-Chloro-4-iodo-phenylamino)-3,4,5-trifluoro-N-(2-phenylamino-ethoxy)-benzamide] |  |  | IC50 (MEK): 33 nM
34 | Cc1cc(I)ccc1Nc1c(C(=O)NOCCNc2ccccc2)ccc(F)c1F [Example 234, 3,4-Difluoro-2-(4-iodo-2-methyl-phenylamino)-N-(2-phenylamino-ethoxy)-benzamide] |  |  | IC50 (MEK): 54 nM
35 | O=C(NOCCNc1ccccc1)c1cc(Br)c(F)c(F)c1Nc1ccc(I)cc1Cl [Example 235, 5-Bromo-2-(2-chloro-4-iodo-phenylamino)-3,4-difluoro-N-(2-phenylamino-ethoxy)-benzamide] |  |  | IC50 (MEK): 62 nM
